Values quoted from earlier work in patent US6943021B2, “Three dimensional vaginal tissue model containing immune cells” (MatTek Corporation, priority 2002, dated 2005).

Test system: ectocervical-vaginal tissue

In the case of Nonoxynol-9 [N-9], the ectocervical-vaginal irritation (finite segment of the population (Reckart 1992)) is given as “cause ectocervical-vaginal irritation” and the “volunteers who experienced ectocervical-vaginal irritation” value (study evaluating N-9 as an HIV microbicide (Stafford et al. 1998)) is given as 25%.
